Results published in US20220096436A1, “COMBINATION PRODUCT FOR THE TREATMENT OF CANCER” (Debiopharm International S.A., priority 2019, published 2022).

Columns and labels:
TS/A breast cancer = test: Therapeutic efficacy in TS/A breast cancer mouse syngeneic model; type: in vivo; details: Debio 1143 combined with an anti-CTLA4 antibody
Experimental: (§1) The therapeutic efficacy of Debio 1143 combined with an anti-CTLA4 antibody was tested in a TS/A breast cancer mouse syngeneic model. Further, the therapeutic efficacy of Debio 1143 combined with an IDO inhibitor (INCB024360) was tested in a CT-26 colorectal cancer mouse syngeneic model.

B16F10 melanoma tumors = test: Anti-tumor efficacy in subcutaneous B16F10 mouse melanoma syngeneic model; type: in vivo, C57BL/6 mice; details: for TGI: vs vehicle; for mean tumor volume: vehicle group 1529 mm^3
Experimental: C57BL/6 mice were s.c. injected with 2×10^5 B16F10 tumor cells (see, for example, Bobek et al., 2010. Anticancer Res. 30(12):4799-803) and treatments started at a mean group tumor size of 94 mm^3 (n=8/group). Debio 1143 at 100 and 200 mg/kg p.o. was given on 5 days/week in combination with 10 mg/kg i.p. anti-PD1 twice weekly and compared to treatment with vehicle plus isotype antibody. In addition, the 100 mg/kg dose given twice weekly in combination with anti-PD1 at 10 mg/kg i.p. twice weekly was tested.

CT-26 colorectal cancer = test: Therapeutic efficacy in CT-26 colorectal cancer mouse syngeneic model; type: in vivo; details: Debio 1143 combined with IDO inhibitor INCB024360
Experimental: as §1

[1] = nivolumab 3-10 mg/kg q2w monotherapy across tumor types, n=2,578; cited from earlier work
cancers = details: nivolumab monotherapy, 27 trials, n=5,551, cited from earlier work

CN[C@@H](C)C(=O)N[C@H]1CN(C(=O)CC(C)C)CC[C@H]2CC[C@@H](C(=O)NC(c3ccccc3)c3ccccc3)N2C1=O [Debio 1143, (5S,8S,10aR)-N-benzhydryl-5-((S)-2-(methylamino)propanamido)-3-(3-methylbutanoyl)-6-oxodecahydropyrrolo[1,2-a][1,5]diazocine-8-carboxamide]
combination therapy compared to the respective monotherapies (TS/A breast cancer): did not lead to a statistically significant improvement
TGI (B16F10 melanoma tumors; day 19, Debio 1143 100 mg/kg p.o. QD1-5 combined with anti-PD-1 10 mg/kg, P=0.155): 31%
mean tumor volume (B16F10 melanoma tumors; day 19, Debio 1143 200 mg/kg p.o. 5 days/week in combination with 10 mg/kg anti-PD-1): 594 mm^3
TGI (B16F10 melanoma tumors; day 19, Debio 1143 200 mg/kg p.o. 5 days/week in combination with 10 mg/kg anti-PD-1, P=0.005): 61%
mean tumor volume (B16F10 melanoma tumors; day 19, bi-weekly Debio 1143 100 mg/kg in combination with anti-PD-1 10 mg/kg): 1396 mm^3
TGI (B16F10 melanoma tumors; day 19, bi-weekly Debio 1143 100 mg/kg in combination with anti-PD-1 10 mg/kg, P=0.757): 9%
mean tumor volume (B16F10 melanoma tumors; day 19 from tumor inoculation, Debio 1143 100 mg/kg p.o. QD1-5 (5 days/week) combined with anti-PD-1 10 mg/kg i.p. twice weekly): 1049 mm^3
combination therapy compared to the respective monotherapies (CT-26 colorectal cancer): did not lead to a statistically significant improvement

nivolumab: fully human immunoglobulin G4 (IgG4) monoclonal antibody, which binds to the PD-1 receptor and blocks its interaction with PD-L1 and PD-L2
adverse reaction frequency: diarrhea [1]: 13%
adverse reaction frequency: fatigue [1]: 30%
adverse reaction frequency: pruritus [1]: 13%
adverse reaction frequency: rash [1]: 17%
pooled objective response rate (ORR) (cancers; 95% CI 21-31): 26%
6-month PFS rate (cancers; 95% CI 34-46): 40%
1-year OS rate (cancers; 95% CI 43-62): 52%
